From article PMC11062922 (Nature Chemical Biology, 2023)

Experiments:
GRK6 = target: T1, GRK6 (Homo sapiens, UniProt P43250); assay: Kinobeads two-dose competition binding: GRK6; conditions: Kinobeads two-dose, Drugmatrix - all 2; read-out: apparent Kd GRK6
T1 construct: endogenous in cells

[1] = system: IL-10 secretion in primary bone marrow-derived dendritic cells (BMDCs); assay: IL-10 cytokine secretion assay (ELISA) in Zymosan-stimulated primary BMDCs; format: cell-based, mouse; conditions: murine BMDCs, inhibitor 30 min before Zymosan stimulation
Method: A subsequent full dose–response experiment confirmed potent and selective binding to SYK ( Kdapp = 58 nM, […] = 0.60; Extended Data Fig. 5a,b). […] One of the effects of Zymosan is that it activates Dectin-1 signaling, in turn activating SYK and leading to increased IL-10 cytokine production (Fig. 3c)[34]. Treatment of cells with the respective SYK inhibitors before Zymosan stimulation indeed led to decreased levels of IL-10 in a dose-dependent fashion (Fig. 3d). […] In line with the cytokine readout, we observed a dose depended reduction of pTyr525/526 indicating SYK inhibition in live cells (Fig. 3e and Extended Data Fig. 5c).
Primary BMDCs were obtained from 9-week-old C57BL/6 mice that were maintained under standard specific pathogen-free conditions. BMDCs were differentiated for 7 days in Roswell Park Memorial Institute medium (Gibco) and granulocyte-macrophage colony-stimulating factor. On day seven, BMDCs were seeded in 96-well plates at 10^5 cells per well in 100 µl of culture medium followed by incubation for 4 h at 37 °C. Subsequently, cells were incubated with SYK inhibitors for 30 min followed by stimulation with Zymosan (final concentration of 50 µg ml^−1; Invivogen) and dispersed in culture medium for 24 h. […] For cytokine secretion quantification, cell culture medium was collected and concentrations of IL-10 in the supernatant were determined using mouse enzyme-linked immunosorbent assay kits (IL-10: Invitrogen) according to the manufacturer’s protocol. Experiments were performed in biological triplicates.

PAK4 = target: T2, PAK4 (Homo sapiens, UniProt O96013); assay: Kinobeads full dose-response competition binding: PAK4; conditions: Gene Name PAK4, doses in nM
T2 construct: a mixture of lysates from five cancer cell lines; endogenous in cells
T2 sequence (O96013 whole entry): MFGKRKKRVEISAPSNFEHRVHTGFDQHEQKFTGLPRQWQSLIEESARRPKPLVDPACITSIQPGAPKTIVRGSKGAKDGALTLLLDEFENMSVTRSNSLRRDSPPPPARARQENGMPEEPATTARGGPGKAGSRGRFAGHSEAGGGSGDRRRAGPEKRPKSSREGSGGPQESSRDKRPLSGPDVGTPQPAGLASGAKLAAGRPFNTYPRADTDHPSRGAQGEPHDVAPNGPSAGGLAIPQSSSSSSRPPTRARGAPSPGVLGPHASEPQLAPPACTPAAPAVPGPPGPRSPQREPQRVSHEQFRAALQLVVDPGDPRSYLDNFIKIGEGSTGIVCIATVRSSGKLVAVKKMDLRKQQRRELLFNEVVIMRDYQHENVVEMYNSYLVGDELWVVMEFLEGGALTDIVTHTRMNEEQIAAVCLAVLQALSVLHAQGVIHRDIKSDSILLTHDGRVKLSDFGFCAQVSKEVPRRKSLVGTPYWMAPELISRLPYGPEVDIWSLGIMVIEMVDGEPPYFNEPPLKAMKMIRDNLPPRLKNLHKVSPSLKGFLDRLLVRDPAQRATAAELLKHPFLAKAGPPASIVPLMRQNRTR

PRKCA = target: T3, PRKCA (Homo sapiens, UniProt P17252); assay: Kinobeads full dose-response competition binding: PRKCA; conditions: Gene Name PRKCA, doses in nM
T3 construct: endogenous in cells

ABCD3 = target: T4, ABCD3 (Homo sapiens, UniProt P28288); assay: Kinobeads two-dose competition binding: ABCD3; conditions: sheet "Kinobeads Drugmatrix - all"; unit inferred; read-out: Kinobeads Drugmatrix - all: apparent Kd, ABCD3
T4 construct: endogenous in cells
T4 sequence (P28288 1-659): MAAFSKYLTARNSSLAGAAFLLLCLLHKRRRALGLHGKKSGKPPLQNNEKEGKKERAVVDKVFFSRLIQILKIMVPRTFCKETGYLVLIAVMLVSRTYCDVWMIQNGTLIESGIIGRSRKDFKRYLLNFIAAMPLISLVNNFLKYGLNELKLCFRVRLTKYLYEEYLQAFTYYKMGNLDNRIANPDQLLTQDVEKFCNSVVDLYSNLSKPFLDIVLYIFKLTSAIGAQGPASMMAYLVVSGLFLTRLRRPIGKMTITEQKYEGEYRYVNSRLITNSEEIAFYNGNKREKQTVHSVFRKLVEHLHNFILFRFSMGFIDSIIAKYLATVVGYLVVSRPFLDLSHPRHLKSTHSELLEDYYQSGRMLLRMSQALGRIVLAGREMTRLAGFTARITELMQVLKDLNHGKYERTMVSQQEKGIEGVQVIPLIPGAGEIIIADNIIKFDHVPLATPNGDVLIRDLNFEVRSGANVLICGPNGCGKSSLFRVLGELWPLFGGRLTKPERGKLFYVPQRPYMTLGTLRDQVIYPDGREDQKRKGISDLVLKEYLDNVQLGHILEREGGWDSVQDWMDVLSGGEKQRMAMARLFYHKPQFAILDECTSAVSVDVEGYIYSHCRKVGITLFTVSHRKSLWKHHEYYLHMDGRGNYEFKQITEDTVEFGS

ABL2 [2] = target: T5, ABL2 (Homo sapiens, UniProt P42684); assay: Kinobeads two-dose competition binding: ABL2; conditions: sheet CATDS matrix 2; Gene Name ABL2
T5 construct: endogenous in cells
T5 sequence (P42684 whole entry): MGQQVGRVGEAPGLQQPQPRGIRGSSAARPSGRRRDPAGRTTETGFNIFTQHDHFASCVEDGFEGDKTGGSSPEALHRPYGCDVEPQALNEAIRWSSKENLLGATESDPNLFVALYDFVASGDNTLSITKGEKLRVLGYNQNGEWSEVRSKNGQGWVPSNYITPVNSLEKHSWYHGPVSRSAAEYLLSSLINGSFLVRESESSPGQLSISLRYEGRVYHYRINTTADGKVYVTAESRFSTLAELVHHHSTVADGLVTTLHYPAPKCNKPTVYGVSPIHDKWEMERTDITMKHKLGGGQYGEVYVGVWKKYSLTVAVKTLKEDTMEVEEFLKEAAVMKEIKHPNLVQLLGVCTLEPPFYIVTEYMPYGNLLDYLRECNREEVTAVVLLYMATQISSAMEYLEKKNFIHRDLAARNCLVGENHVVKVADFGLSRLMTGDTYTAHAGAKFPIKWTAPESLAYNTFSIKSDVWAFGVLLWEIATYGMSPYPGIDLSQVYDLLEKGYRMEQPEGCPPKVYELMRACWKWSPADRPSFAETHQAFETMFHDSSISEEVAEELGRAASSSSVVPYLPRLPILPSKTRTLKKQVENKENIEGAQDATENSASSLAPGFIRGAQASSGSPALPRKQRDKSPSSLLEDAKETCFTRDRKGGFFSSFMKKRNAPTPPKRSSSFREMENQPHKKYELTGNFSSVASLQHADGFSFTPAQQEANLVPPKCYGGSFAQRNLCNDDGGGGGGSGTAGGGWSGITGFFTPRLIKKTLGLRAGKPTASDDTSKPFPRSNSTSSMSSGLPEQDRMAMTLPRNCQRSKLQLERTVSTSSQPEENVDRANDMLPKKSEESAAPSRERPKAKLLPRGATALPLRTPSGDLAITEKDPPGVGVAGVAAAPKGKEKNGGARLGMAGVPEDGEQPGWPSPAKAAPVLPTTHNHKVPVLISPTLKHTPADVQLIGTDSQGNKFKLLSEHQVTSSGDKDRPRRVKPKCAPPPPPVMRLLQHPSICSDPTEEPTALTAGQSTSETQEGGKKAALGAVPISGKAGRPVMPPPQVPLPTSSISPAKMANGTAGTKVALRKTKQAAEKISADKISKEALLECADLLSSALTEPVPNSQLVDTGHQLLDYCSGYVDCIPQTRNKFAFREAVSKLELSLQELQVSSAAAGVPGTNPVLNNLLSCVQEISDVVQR

ACAD11 [3] = target: T6, ACAD11 (Homo sapiens, UniProt Q709F0); assay: Kinobeads two-dose competition binding: ACAD11; conditions: sheet CATDS matrix 2; Gene Name ACAD11
T6 construct: endogenous in cells
T6 sequence (Q709F0 1-780): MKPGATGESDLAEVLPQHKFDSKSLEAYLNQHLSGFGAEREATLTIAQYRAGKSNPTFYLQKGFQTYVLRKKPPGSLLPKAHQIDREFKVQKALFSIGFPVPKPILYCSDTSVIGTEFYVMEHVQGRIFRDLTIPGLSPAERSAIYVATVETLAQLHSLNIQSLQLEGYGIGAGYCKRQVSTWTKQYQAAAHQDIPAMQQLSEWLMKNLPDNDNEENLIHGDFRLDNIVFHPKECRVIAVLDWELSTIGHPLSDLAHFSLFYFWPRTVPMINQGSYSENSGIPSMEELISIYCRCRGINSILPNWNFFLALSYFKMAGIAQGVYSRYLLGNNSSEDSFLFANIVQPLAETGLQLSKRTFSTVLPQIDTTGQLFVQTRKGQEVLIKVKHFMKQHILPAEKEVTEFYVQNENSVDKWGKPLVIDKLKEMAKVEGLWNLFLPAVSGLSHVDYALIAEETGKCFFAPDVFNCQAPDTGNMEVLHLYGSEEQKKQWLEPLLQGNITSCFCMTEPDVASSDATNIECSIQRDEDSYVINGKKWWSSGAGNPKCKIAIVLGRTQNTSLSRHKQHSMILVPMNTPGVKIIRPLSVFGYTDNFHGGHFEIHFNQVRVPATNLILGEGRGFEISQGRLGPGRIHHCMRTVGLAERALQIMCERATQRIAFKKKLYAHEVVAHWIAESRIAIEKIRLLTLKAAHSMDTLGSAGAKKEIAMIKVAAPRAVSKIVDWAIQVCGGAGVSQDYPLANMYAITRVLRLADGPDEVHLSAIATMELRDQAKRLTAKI

ACOX1 = target: T7, ACOX1 (Homo sapiens, UniProt Q15067); assay: Kinobeads two-dose competition binding: ACOX1; conditions: for CATDS: sheet CATDS matrix 2, Gene Name ACOX1;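 on all read-outs here: competition of compounds with immobilized broad-spectrum kinase inhibitor beads in cell lysate at 100 and 1,000 nM, 45 min at 4 °C, bead-bound protein quantified by label-free MS versus DMSO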
T7 construct: endogenous in cells
T7 sequence (Q15067 1-660): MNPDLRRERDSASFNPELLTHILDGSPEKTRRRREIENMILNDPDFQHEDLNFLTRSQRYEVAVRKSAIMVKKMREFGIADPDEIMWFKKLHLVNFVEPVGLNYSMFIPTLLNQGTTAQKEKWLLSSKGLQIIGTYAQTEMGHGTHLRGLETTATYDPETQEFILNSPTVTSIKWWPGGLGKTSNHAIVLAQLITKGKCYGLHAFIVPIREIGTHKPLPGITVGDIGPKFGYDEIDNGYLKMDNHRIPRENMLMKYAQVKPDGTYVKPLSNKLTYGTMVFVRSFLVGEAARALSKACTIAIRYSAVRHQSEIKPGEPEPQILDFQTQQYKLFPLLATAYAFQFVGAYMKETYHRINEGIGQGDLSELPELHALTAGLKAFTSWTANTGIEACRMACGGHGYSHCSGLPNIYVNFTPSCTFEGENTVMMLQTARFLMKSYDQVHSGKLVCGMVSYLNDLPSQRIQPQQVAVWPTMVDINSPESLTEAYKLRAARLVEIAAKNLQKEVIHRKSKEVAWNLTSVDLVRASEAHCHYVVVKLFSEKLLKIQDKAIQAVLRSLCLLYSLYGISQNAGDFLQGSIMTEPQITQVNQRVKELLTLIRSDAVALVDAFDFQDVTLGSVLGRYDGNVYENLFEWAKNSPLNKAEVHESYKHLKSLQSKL

ABL1 [4] = target: T8, ABL1 (Homo sapiens, UniProt P00519); assay: Kinobeads two-dose competition binding: ABL1; conditions: sheet CATDS matrix 2; Gene Name ABL1
T8 sequence (P00519 28-1130 limits assumed): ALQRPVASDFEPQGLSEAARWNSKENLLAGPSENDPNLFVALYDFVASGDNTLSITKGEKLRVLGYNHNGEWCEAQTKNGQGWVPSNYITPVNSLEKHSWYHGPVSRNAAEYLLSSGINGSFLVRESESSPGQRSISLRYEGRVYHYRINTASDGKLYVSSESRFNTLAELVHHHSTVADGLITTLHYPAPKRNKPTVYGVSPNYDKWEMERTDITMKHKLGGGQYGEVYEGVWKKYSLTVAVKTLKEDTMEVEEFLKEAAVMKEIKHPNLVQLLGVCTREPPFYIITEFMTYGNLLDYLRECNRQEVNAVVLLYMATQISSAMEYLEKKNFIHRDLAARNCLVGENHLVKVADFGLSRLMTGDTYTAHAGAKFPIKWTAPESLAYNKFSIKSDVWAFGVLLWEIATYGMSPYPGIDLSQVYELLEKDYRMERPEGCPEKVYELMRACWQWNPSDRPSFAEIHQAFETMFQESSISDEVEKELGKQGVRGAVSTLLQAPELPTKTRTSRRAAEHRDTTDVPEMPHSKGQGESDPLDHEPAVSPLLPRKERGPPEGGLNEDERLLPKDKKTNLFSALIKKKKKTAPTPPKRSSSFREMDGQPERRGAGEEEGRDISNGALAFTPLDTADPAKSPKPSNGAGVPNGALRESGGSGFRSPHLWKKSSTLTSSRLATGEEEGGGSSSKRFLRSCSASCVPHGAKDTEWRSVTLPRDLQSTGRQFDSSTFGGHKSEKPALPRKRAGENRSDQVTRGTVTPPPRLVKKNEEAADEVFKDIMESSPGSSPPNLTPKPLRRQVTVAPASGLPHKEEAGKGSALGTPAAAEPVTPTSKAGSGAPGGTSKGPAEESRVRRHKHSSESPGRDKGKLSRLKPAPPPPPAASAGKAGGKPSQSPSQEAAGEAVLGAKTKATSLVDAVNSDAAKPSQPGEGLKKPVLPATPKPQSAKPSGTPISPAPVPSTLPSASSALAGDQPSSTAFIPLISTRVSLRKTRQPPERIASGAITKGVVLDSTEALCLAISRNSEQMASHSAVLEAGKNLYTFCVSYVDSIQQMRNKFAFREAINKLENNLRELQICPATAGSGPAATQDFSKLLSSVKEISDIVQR

AAK1 = target: T9, AAK1 (Homo sapiens, UniProt Q2M2I8); assay: Kinobeads two-dose competition binding: AAK1; conditions: for CATDS: sheet CATDS matrix 2, Gene Name AAK1; for potency estimated from few doses: sheet "Kinobeads Drugmatrix - all", unit inferred, same values below 1000 recur in sheet "nanomolar", read-out: Kinobeads Drugmatrix - all: apparent Kd, AAK1;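 on all read-outs here: kinobeads competition pulldown from cell lysate, compound preincubated 45 min at 4 °C, bead-bound protein measured by label-free mass spectrometry against DMSO vehicle control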
T9 construct: to maximize the representation of endogenous proteins; endogenous in cells
T9 sequence (Q2M2I8 whole entry): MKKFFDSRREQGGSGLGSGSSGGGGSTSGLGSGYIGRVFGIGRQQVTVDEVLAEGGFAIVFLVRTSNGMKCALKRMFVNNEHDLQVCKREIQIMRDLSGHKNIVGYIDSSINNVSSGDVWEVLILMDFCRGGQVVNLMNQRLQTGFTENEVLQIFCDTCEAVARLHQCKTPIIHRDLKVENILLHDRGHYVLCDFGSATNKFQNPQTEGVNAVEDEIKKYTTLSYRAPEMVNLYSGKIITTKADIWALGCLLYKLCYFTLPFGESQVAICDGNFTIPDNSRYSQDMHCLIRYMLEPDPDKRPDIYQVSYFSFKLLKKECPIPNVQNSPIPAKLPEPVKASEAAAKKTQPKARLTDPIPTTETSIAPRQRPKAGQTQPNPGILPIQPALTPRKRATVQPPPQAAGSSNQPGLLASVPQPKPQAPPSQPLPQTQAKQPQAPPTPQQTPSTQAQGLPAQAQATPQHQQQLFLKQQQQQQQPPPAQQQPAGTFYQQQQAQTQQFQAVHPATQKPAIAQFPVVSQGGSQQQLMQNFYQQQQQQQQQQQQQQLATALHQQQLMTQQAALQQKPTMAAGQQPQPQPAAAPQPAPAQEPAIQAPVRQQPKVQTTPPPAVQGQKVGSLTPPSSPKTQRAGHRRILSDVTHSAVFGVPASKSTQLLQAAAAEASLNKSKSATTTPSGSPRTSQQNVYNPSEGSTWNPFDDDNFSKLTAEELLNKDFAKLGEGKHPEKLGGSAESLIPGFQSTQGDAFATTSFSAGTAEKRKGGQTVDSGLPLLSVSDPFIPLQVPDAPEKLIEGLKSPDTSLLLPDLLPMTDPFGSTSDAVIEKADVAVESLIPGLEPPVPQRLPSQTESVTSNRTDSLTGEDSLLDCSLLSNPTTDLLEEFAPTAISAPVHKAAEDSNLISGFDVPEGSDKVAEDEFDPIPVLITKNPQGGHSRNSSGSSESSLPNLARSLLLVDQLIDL

ACAD11 [5] = target: T6, ACAD11; assay: Kinobeads two-dose competition binding: ACAD11; conditions: sheet "Kinobeads Drugmatrix - all"; unit inferred; read-out: Kinobeads Drugmatrix - all: apparent Kd, ACAD11
ABL1 [6] = target: T8, ABL1; assay: Kinobeads two-dose competition binding: ABL1; conditions: sheet "Kinobeads Drugmatrix - all"; unit inferred; read-out: Kinobeads Drugmatrix - all: apparent Kd, ABL1
[7] = system: endogenous kinases and other proteins enriched by Kinobeads from mixed lysates of K-562, COLO-205, MV-4-11, SK-N-BE(2) and OVCAR-8; assay: Kinobeads competition binding profiling, two doses (100 nM and 1 µM); design: species or system human; conditions: in words;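 further: inhibitor preincubated 45 min at 4 °C in cell lysate, then bead pulldown. Bound protein quantified by label-free mass spectrometry relative to DMSO vehicle control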
ABL2 [8] = target: T5, ABL2; assay: Kinobeads two-dose competition binding: ABL2; conditions: sheet "Kinobeads Drugmatrix - all"; unit inferred; read-out: Kinobeads Drugmatrix - all: apparent Kd, ABL2
[9] = target: T10, endogenous kinases and other proteins enriched by Kinobeads from mixed lysates of K-562, COLO-205, MV-4-11, SK-N-BE(2) and OVCAR-8 (Homo sapiens, UniProt O43353); assay: Kinobeads competition binding profiling, two doses (100 nM and 1 µM); conditions: target RIPK2; read-out: apparent Kd;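 further: inhibitor preincubated 45 min at 4 °C in cell lysate, then bead pulldown. Bound protein quantified by label-free mass spectrometry relative to DMSO vehicle control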
T10 construct: to maximize the representation of endogenous proteins; endogenous in cells

FLT3 = assay: Kinobeads two-dose competition binding: FLT3; design: species or system human
PKN3 = PKN3 (Homo sapiens, UniProt Q6P5Z2); design: full-length PKN3, CSNK2A1 or CSNK2A2 ORF; host or cells: HEK293T; conditions: reported for the most potent 4-anilinoquin(az)oline; cited from earlier work
[10] = EC50 with Correction, read-out: apparent Kd

T1 sequence (P43250 whole entry): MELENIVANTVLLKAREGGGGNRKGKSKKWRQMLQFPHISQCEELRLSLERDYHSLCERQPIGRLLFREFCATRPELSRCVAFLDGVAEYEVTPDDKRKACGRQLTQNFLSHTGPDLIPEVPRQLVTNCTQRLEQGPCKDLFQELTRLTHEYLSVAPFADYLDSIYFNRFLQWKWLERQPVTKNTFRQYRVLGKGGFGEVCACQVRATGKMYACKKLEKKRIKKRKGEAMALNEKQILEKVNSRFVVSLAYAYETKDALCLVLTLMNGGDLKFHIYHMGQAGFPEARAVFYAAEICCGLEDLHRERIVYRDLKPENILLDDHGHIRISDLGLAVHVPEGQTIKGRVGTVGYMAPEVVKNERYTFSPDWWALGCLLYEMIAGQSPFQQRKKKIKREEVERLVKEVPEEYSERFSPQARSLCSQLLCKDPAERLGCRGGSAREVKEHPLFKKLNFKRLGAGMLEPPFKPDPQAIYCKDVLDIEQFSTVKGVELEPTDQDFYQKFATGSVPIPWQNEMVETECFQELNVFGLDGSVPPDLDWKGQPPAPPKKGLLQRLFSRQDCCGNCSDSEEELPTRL

SMILES: c1ccc(-c2cnc3nccnn23)cc1 [AH20685XX]
- potency estimated from few doses (GRK6): > 1000 nM

SMILES: Cc1cccc(Nc2nc(N[C@H]3CCCC[C@H]3N)ncc2C(N)=O)c1 [GSK986310C]
- IL-10 levels [1]: dose-dependent reduction
- Kd (PAK4; [10]): 65.9 nM
- EC50 (PAK4; eight-dose curve fit): 135 nM
- Kd (PRKCA; [10]): 272 nM
- EC50 (PRKCA; eight-dose curve fit): 446 nM

SMILES: CCn1cc(-c2ccnc3[nH]c(-c4cccc(CN(C)C)c4)cc23)c(-c2ccc(NC(=O)N(C)C)cc2)n1 [GSK1070916]
- potency estimated from few doses (ABCD3): > 1000 nM
- CATDS (ABL2 [2]): 0
- CATDS (ACAD11 [3]): 0
- CATDS (ACOX1): 0
- CATDS (ABL1 [4]): 0
- CATDS (AAK1): 0

SMILES: NCC(C(=O)Nc1cc(Br)c(-c2ccnc3[nH]ccc23)s1)c1ccccc1 (centres unmarked) [GSK1269851A]
- CATDS (ABL2 [2]): 0.01467
- CATDS (ACAD11 [3]): 0
- potency estimated from few doses (ACAD11 [5]): > 1000 nM
- potency estimated from few doses (ABL1 [6]): > 1000 nM
- CATDS (ACOX1): 0
- selectivity in the Kinobeads assay (CATDSmost potent) [7]: unselective
- potency estimated from few doses (ABL2 [8]): 433 nM
- CATDS (ABL1 [4]): 0
- potency estimated from few doses (AAK1): 84.4 nM
- CATDS (AAK1): 0.03418

SMILES: COc1ccc(Nc2nccc(N3CCC(NC(=O)Nc4ccc5c(c4)OCO5)C3)n2)cc1 (centres unmarked) [GSK1379745A]
- potency estimated from few doses (ABCD3): > 1000 nM
- CATDS (ABL2 [2]): 0
- CATDS (ACAD11 [3]): 0
- CATDS (ACOX1): 0
- CATDS (ABL1 [4]): 0
- CATDS (AAK1): 0

SMILES: Cc1cc(-c2ccnc(Nc3cccc(C#N)c3)n2)cc(C)c1O [GSK1440913A]
- CATDS (ABL2 [2]): 0
- CATDS (ACAD11 [3]): 0.1181
- potency estimated from few doses (ACAD11 [5]): 425 nM
- CATDS (ACOX1): 0
- CATDS (ABL1 [4]): 0
- potency estimated from few doses (AAK1): 120 nM
- CATDS (AAK1): 0.2295

SMILES: CCc1nc(-c2cccc(N(C)S(=O)(=O)c3ccccc3)c2)c(-c2ccnc(Nc3ccc(N4CCN(C(C)=O)CC4)nc3)n2)s1 [GSK1645895A]
- potency estimated from few doses (ABCD3): > 1000 nM
- CATDS (ABL2 [2]): 0
- CATDS (ACAD11 [3]): 0
- CATDS (ACOX1): 0
- CATDS (ABL1 [4]): 0
- CATDS (AAK1): 0

SMILES: O=c1[nH]ccc2nc(N[C@@H]3CCNC3)nc(Nc3ccc4c(c3)S(=O)(=O)CC4)c12 [GSK2181306A]
- CATDS (ABL2 [2]): 0
- CATDS (ACAD11 [3]): 0.02228
- potency estimated from few doses (ACAD11 [5]): 145 nM
- CATDS (ACOX1): 0
- CATDS (ABL1 [4]): 0
- potency estimated from few doses (AAK1): 800 nM
- CATDS (AAK1): 0.01021

SMILES: CNC(=O)c1cncc(/C=C/c2c(Cl)cccc2Cl)c1 [GW445014X]
- potency estimated from few doses [9]: 773 nM

SMILES: O=C1Nc2ccc(F)cc2/C1=C/c1ccc[nH]1 [RO0272148-000]
- potency estimated from few doses (FLT3; Kinobeads two-dose (100 nM and 1 µM), mixed cell lysate, read-out: Kdapp FLT3): 99 nM
- CATDSFLT3 (FLT3; selectivity score from Kinobeads two-dose data): 0.87
- potency estimated from few doses (ACOX1; Kinobeads two-dose, mixed cell lysate, read-out: Kdapp ACOX1): > 1000 nM

SMILES: COc1cc(Nc2ccnc3cc(I)ccc23)cc(OC)c1OC [UNC-CA94]
- in-cell target engagement PKN3 (PKN3): 1.3 µM
